Values of other authors, collected in EP0188214A2, “Novel growth hormone-releasing peptides and method of treating mammals therewith” (The Administrators of The Tulane University Educational Fund, priority 1985, dated 1986).
Ends that are not written are not given here.

System: rat anterior pituitary
Settings: rat anterior pituitary in vitro and in vivo; literature

hp GRF(1-29)-NH2: synthetic amidated fragment of the natural hp GRF (YADAIFTNSYRKVLGQLSARKLLQDIMSR-NH2; UniProt P01286 32-60, looked up, fragment)
growth hormone(GH)-releasing activity: full intrinsic biological activity

hpGRF: growth hormone-releasing factors (GRF) of human pancreatic islet tumor origin (YADAIFTNSYRKVLGQLSARKLLQDIMSRQQGESNQERGARARL; ends and bridges not checked; UniProt P01286 32-75, looked up)
growth hormone(GH)-releasing activity: possess growh hormone(GH)-releasing activity
